The source made the active and inactive calls. The rule behind the calls is not given here. Residues, ends and D or L forms follow the SMILES beside them. *: point of attachment. βNA = c1ccc2cc(N*)ccc2c1
Tests used:
Escherichia coli K-12 [1] = assay: Inhibition of acrAB AcrAB-TolC-mediated Nile Red efflux in marR mutant containing Escherichia coli K-12 3-AG102 overexpressing acrAB AcrAB-TolC assessed as time needed for 50% efflux after energization with 50 mM glucose at 200 uM by spectrofluorometric assay
Escherichia coli K-12 [2] = assay: Inhibition of acrAB AcrAB-TolC in Escherichia coli K-12 3-AG100 overexpressing acrAB AcrAB-TolC assessed as [3H]TMG accumulation at 100 uM by scintillation counter method
Escherichia coli K-12 [3] = assay: Inhibition of acrAB AcrAB-TolC-mediated Nile Red efflux in marR mutant containing Escherichia coli K-12 3-AG102 overexpressing acrAB AcrAB-TolC assessed as time needed for 50% efflux after energization with 50 mM glucose at 1000 uM by spectrofluorometric assay
Escherichia coli K-12 [4] = assay: Inhibition of acrAB AcrAB-TolC in Escherichia coli K-12 3-AG100 overexpressing acrAB AcrAB-TolC assessed as [3H]TMG accumulation at 800 uM by scintillation counter method
Escherichia coli K-12 [5] = assay: Inhibition of acrAB AcrAB-TolC in Escherichia coli K-12 3-AG100 overexpressing acrAB AcrAB-TolC assessed as [3H]TMG accumulation at 200 uM by scintillation counter method
Escherichia coli K-12 [6] = assay: Inhibition of acrAB AcrAB-TolC-mediated Nile Red efflux in Escherichia coli K-12 3-AG100 overexpressing acrAB AcrAB-TolC assessed as time needed for 50% efflux after energization with 50 mM glucose upto 2 mM by spectrofluorometric assay
Escherichia coli K-12 [7] = assay: Inhibition of acrAB AcrAB-TolC-mediated Nile Red efflux in Escherichia coli K-12 3-AG100 overexpressing acrAB AcrAB-TolC assessed as time needed for 50% efflux after energization with 50 mM glucose by spectrofluorometric assay
Escherichia coli K-12 [8] = assay: Inhibition of acrAB AcrAB-TolC-mediated Nile Red efflux in Escherichia coli K-12 3-AG100 overexpressing acrAB AcrAB-TolC assessed as time needed for 50% efflux after energization with 50 mM glucose at 100 uM by spectrofluorometric assay
Escherichia coli K-12 [9] = assay: Inhibition of acrAB AcrAB-TolC-mediated Nile Red efflux in Escherichia coli K-12 3-AG100 overexpressing acrAB AcrAB-TolC assessed as time needed for 50% efflux after energization with 50 mM glucose at 800 uM by spectrofluorometric assay

Row | Compound | TIME (Escherichia coli K-12 [1]) [h] | TIME (Escherichia coli K-12 [3]) [h] | inhibition (Escherichia coli K-12 [4]) [%] | further results
1 | COc1cccc2c1C(=O)c1c(O)c3c(c(O)c1C2=O)C[C@@](O)(C(=O)CO)C[C@@H]3O[C@H]1C[C@H](N)[C@H](O)[C@H](C)O1 | > 0.0556 | > 0.0556 |  | inhibition (Escherichia coli K-12 [2]): 78%
2 | c1ccc([P+](c2ccccc2)(c2ccccc2)c2ccccc2)cc1 | 0.0292 | > 0.0556 | 97 | 
3 | N#CC(C#N)=NNc1cccc(Cl)c1 |  |  |  | inhibition (Escherichia coli K-12 [5]): 4.5%
4 | CN(C)[C@@H]1C(O)=C(C(N)=O)C(=O)[C@@]2(O)C(O)=C3C(=O)c4c(O)ccc(Cl)c4[C@@](C)(O)[C@H]3C[C@@H]12 | 0.0556 | > 0.0556 |  | inhibition (Escherichia coli K-12 [5]): 14%
5 | CC[C@H]1OC(=O)[C@H](C)[C@@H](O[C@H]2C[C@@](C)(OC)[C@@H](O)[C@H](C)O2)[C@H](C)[C@@H](O[C@@H]2O[C@H](C)C[C@H](N(C)C)[C@H]2O)[C@](C)(O)C[C@@H](C)C(=O)[C@H](C)[C@@H](O)[C@]1(C)O |  |  |  | inhibition (Escherichia coli K-12 [6]): inactive
6 | C[C@H]1c2cccc(O)c2C(=O)C2=C(O)[C@]3(O)C(=O)C(C(N)=O)=C(O)[C@@H](N(C)C)[C@@H]3[C@@H](O)[C@@H]21 | 0.0472 | > 0.0556 | 44 | 
7 | CN(C)[C@@H]1C(O)=C(C(N)=O)C(=O)[C@@]2(O)C(O)=C3C(=O)c4c(O)cccc4[C@@](C)(O)[C@H]3C[C@@H]12 | 0.025 | > 0.0556 | 27 | 
8 | CN(C)c1ccc(O)c2c1C[C@H]1C[C@H]3[C@H](N(C)C)C(O)=C(C(N)=O)C(=O)[C@@]3(O)C(O)=C1C2=O | > 0.0556 | > 0.0556 |  | inhibition (Escherichia coli K-12 [5]): 45%
9 | CC(=O)NC[C@H]1CN(c2ccc(N3CCOCC3)c(F)c2)C(=O)O1 |  |  |  | inhibition (Escherichia coli K-12 [6]): inactive
10 | N=C(N)NCCC[C@H](NC(=O)[C@@H](N)Cc1ccccc1)C(=O)Nc1ccc2ccccc2c1 (H-Phe-Arg-βNA) |  |  |  | inhibition (Escherichia coli K-12 [7]): Dose-dependent effect; inhibition (Escherichia coli K-12 [8]): Active; inhibition (Escherichia coli K-12 [2]): 60%
11 | c1ccc2c(CN3CCNCC3)cccc2c1 | 0.0278 | > 0.0556 | 53 | inhibition (Escherichia coli K-12 [7]): Dose-dependent effect; inhibition (Escherichia coli K-12 [9]): Active
